Where two headings read alike, the source gives them in different places.
Assays:
motilin receptor = motilin receptor (Homo sapiens, UniProt O43193); test: Selectivity for the ghrelin receptor versus the motilin receptor; assay type: binding
From the text: The level of agonist activity and selectivity for representative compounds of the invention are shown below in Table 4.

[1] = biological target: T1, human ghrelin receptor (hGHS-R1a) (Homo sapiens, UniProt Q92847); test: Aequorin functional assay (ghrelin receptor), CHO-K1 cells co-expressing Gα16 and aequorin; assay type: cell-based; details: Table 4; functional (agonist) activity; TFA salts unless otherwise noted; read-out: EC50
T1 construct: host or cells: CHO-K1 co-expressing Gα16 and mitochondrially targeted aequorin
Experimental: This cell line is typically constructed by transfection of the human ghrelin receptor into CHO-K1 cells co-expressing Gα16 and the mitochondrially targeted Aequorin (Ref #ES-WT-A5). • 1. […] Assay buffer: DMEM (Dulbecco's Modified Eagles Medium) containing 0.1% BSA (bovine serum albumin; pH 7.0). • 3. Coelenterazine (Molecular Probes, Leiden, The Netherlands). • Final test concentrations (N=8) for compounds of the invention: 10, 1, 0.3, 0.1, 0.03, 0.01, 0.003, 0.001 μM.
Stock solutions of compounds (10 mM in 100% DMSO) were provided frozen on dry ice and stored at −20° C. prior to use. […] Assay plates were then prepared by appropriate dilution in DMEM medium containing 0.1% BSA. Under these conditions, the maximal final DMSO concentration in the assay was <0.6%.
AequoScreen™ cells were collected from culture plates with Ca^2+ and Mg^2+-free phosphate buffered saline (PBS) supplemented with 5 mM EDTA, pelleted for 2 min at 1000×g re-suspended in DMEM—Ham's F12 containing 0.1% BSA at a density of 5×10^6 cells/mL, and incubated O/N at rt in the presence of 5 μM coelenterazine. After loading, cells were diluted with assay buffer to a concentration of 5×10^5 cells/mL.
For agonist testing, 50 μL of the cell suspension was mixed with 50 μL of the appropriate concentration of test compound or ghrelin (reference agonist) in 96-well plates (duplicate samples). Ghrelin (reference agonist) was tested at several concentrations concurrently with the test compounds in order to validate the experiment. The emission of light resulting from receptor activation in response to ghrelin or test compounds was recorded using the Hamamatsu FDSS 6000 reader (Hamamatsu Photonics K.K., Japan).
Results were expressed as Relative Light Units (RLU). […] EC50, Hill slope and % Emax values are reported.
• 1. Assay performed on CHO-K1 cells expressing the transfected, cloned human ghrelin receptor (hGHS-R1a) and Gα16. • 2. Suspended cells incubated O/N with coelenterazine. • 3. Stimulation of hGHS-R1a activates Gα16, causing […] Ca2+ release which ultimately leads to the oxidation of coelenterazine and the emission of a quantitative luminescent signal. • 4. Ghrelin was used as the positive control. • 5.

[2] = biological target: T2, human growth hormone secretagogue receptor (hGHS-R1a) (Homo sapiens, UniProt Q92847); test: Competitive radioligand binding assay (ghrelin receptor), [125I]-ghrelin displacement on GHS-R/HEK 293 membranes;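 for Binding Activity at the Human Ghrelin Receptor (Ki): symbols B 10-100 nM C 0.1-1 µM D 1-10 µM F above 1 µM G above 10 µM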
T2 construct: purchased PerkinElmer BioSignal #RBHGHSM; host or cells: HEK-293, stably transfected

[3] = Table 3B, binding activity at the human ghrelin receptor, read-out: Ki
[4] = Table 4, TFA salts unless otherwise noted, read-out: Ki
[5] = Binding activity at the human ghrelin receptor, [125I]-ghrelin displacement, read-out: Ki
[6] = [125I]-ghrelin displacement, GHS-R/HEK 293 membranes, class symbols, read-out: Binding Activity at the Human Ghrelin Receptor (Ki)

Chain of motilin receptor (O43193 whole entry, species assumed): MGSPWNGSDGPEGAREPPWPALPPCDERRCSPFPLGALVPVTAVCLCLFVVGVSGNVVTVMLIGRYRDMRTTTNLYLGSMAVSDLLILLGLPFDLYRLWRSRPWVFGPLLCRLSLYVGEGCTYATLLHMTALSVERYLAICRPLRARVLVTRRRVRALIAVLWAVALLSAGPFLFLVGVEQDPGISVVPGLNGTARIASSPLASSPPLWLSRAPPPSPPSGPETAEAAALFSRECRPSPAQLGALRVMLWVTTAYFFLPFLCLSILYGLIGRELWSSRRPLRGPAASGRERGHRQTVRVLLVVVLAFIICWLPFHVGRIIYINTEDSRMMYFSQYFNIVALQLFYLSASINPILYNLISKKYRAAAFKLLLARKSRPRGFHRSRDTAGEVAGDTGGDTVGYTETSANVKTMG
T2 sequence (Q92847 whole entry): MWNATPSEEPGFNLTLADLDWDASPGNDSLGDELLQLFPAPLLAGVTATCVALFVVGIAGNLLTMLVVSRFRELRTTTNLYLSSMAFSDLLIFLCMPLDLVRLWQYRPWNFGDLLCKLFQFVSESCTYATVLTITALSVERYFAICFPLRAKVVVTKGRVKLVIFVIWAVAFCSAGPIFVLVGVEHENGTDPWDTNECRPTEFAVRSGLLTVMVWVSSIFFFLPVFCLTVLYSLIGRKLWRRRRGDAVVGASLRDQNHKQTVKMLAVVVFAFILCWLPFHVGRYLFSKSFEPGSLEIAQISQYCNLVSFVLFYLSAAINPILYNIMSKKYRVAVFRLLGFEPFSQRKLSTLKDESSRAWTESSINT
T1 sequence (Q92847 whole entry): as above

SMILES	Selectivity (motilin receptor)	EC50 [1]	Ki [2, 4]	Ki [2, 5]	further results
C[C@@H]1C(=O)N[C@H](Cc2ccc(F)cc2)C(=O)NCCCc2ncccc2OCCN[C@@H](C2CC2)C(=O)N1C [306a]	714/1	1 to 100 nM	10 to 100 nM		Ki [2, 3]: 10 to 100 nM
CCC(C)[C@@H]1NCCOc2ccccc2/C=C/CNC(=O)[C@H](Cc2cccc(Cl)c2)NC(=O)C2(CCCC2)NC1=O (stereo partly drawn) [345a]	>159/1	1 to 100 nM	10 to 100 nM		Ki [2, 3]: 100 to 1000 nM
CCCC[C@@H]1NCCOc2ccccc2CCCNC(=O)[C@@H](Cc2ccccc2)NC(=O)CN(C)C1=O [Compound 1]	142/1	100 to 1000 nM	10 to 100 nM	10 to 100 nM	
CCCC1NCCOc2ccccc2CCCNC(=O)C(Cc2ccccc2)NC(=O)C(C)N(C)C1=O (stereo not drawn) [Compound 4]	3012/1				
CCC[C@@H]1NCCOc2ccccc2CCCNC(=O)[C@@H](Cc2c[nH]c3ccccc23)NC(=O)CN(C)C1=O [Compound 6]	71/1	1 to 100 nM	100 to 1000 nM	100 to 1000 nM	
CC(C)C[C@@H]1NCCOc2ccccc2/C=C/CNC(=O)[C@H](Cc2ccccc2)NC(=O)C2(CCCC2)NC1=O [Compound 8]	200/1	1 to 100 nM	10 to 100 nM	10 to 100 nM	
CC(C)[C@@H]1NCCOc2ccccc2CCCNC(=O)[C@H](Cc2ccccc2)NC(=O)C2(CCCC2)NC1=O [Compound 9]	117/1	100 to 1000 nM	100 to 1000 nM	100 to 1000 nM	
CCC[C@@H]1NCCOc2ccccc2CCCNC(=O)[C@@H](Cc2ccccc2)NC(=O)CN(C)C1=O [Compound 10]	304/1	1 to 100 nM	10 to 100 nM	10 to 100 nM	
CCC[C@@H]1NCCOc2ccccc2CCCNC(=O)[C@@H](Cc2ccc(O)cc2)NC(=O)CN(C)C1=O [compound 7]	>100/1	1 to 100 nM	100 to 1000 nM	100 to 1000 nM	
CCC(C)C1NCCOc2ccccc2CCCNC(=O)C(Cc2ccccc2)NC(=O)C(C)N(C)C1=O (stereo not drawn) [compound 15]	>1700/1				
CC[C@@H](C)[C@@H]1NCCOc2ccccc2CCCNC(=O)[C@@H](Cc2ccccc2)NC(=O)[C@@H](C)N(C)C1=O [compound 16]	>2000/1				
C[C@@H]1C(=O)N[C@H](Cc2ccccc2)C(=O)NCCCc2ccccc2OCCN[C@@H](C2CC2)C(=O)N1C [compound 17]	2500/1	1 to 100 nM	0.1 to 10 nM	0.1 to 10 nM	
O=C1NC/C=C/c2ccccc2OCCNC2(CCCC2)C(=O)NC2(CCCC2)C(=O)N[C@H]1Cc1ccccc1 [compound 18]	222/1	1 to 100 nM	10 to 100 nM	10 to 100 nM	Ki ([2]; Table 3C, read-out: Ki): 10 to 100 nM
CC(C)C1NCCOc2ccccc2C=CCNC(=O)C(Cc2ccccc2)NC(=O)C(C)N(C)C1=O (stereo not drawn) [compound 19]	>1700/1				
CC(C)C[C@@H]1NCCOc2ccccc2/C=C/CNC(=O)[C@H](Cc2ccccc2Cl)NC(=O)C2(CCCC2)NC1=O [compound 20]	1044/1				
CC(C)C[C@@H]1NCCOc2ccccc2/C=C/CNC(=O)[C@H](Cc2cccc(Cl)c2)NC(=O)C2(CCCC2)NC1=O [compound 21]	1078/1	1 to 100 nM	0.1 to 10 nM	0.1 to 10 nM	
CCC(C)C1NCCOc2ccccc2CCCNC(=O)C(Cc2cccc(Cl)c2)NC(=O)C(C)N(C)C1=O (stereo not drawn) [compound 24]	3039/1				
CCC(C)C1NCCOc2ccccc2CCCNC(=O)C(Cc2ccc(F)cc2)NC(=O)C(C)N(C)C1=O (stereo not drawn) [compound 26]	>7700/1	1 to 100 nM	0.1 to 10 nM	0.1 to 10 nM	
CCC(C)C1NCCOc2ccccc2CCCNC(=O)C(Cc2ccc3ccccc3c2)NC(=O)C(C)N(C)C1=O (stereo not drawn) [compound 31]	4900/1				
CCC(C)C1NCCOc2ccccc2CCCNC(=O)C(Cc2cccs2)NC(=O)C(C)N(C)C1=O (stereo not drawn) [compound 34]	>1000/1				
CCCC1NCCOc2ccccc2C=CCNC(=O)C(Cc2ccccc2)NC(=O)C(C)N(C)C1=O (stereo not drawn) [compound 39]	3400/1				

SMILES	Selectivity (motilin receptor)	EC50 [1]	Ki [2, 4]	Ki [2, 5]	further results
CCC(C)C1NCCOc2ccccc2C=CCNC(=O)C(Cc2ccccc2)NC(=O)C(C)N(C)C1=O (stereo not drawn) [compound 40]	>3300/1				
CCC(C)C1NCCOc2ccccc2CCCNC(=O)C(Cc2ccccc2)NC(=O)C(C)N(C)C1=O (stereo not drawn) [compound 42]	4300/1				
CCC(C)C1NCCOc2ccccc2CCCNC(=O)C(Cc2ccccc2)NC(=O)C(C)N(CC)C1=O (stereo not drawn) [compound 43]	3700/1				
CC(C)C[C@@H]1NCCOc2ccccc2/C=C/CNC(=O)[C@H](CC(C)C)NC(=O)C2(CCCC2)NC1=O [compound 47]		1 to 100 nM	100 to 1000 nM	100 to 1000 nM	
CC(C)C[C@@H]1NCCOc2ccccc2CCCNC(=O)[C@@H](Cc2ccccc2)NC(=O)C2(CCCC2)NC1=O [compound 97]		100 to 1000 nM	10 to 100 nM	100 to 1000 nM	
CC(C)C[C@@H]1NCCOc2ccccc2CCCNC(=O)[C@H](Cc2ccccc2)NC(=O)C2(CC2)NC1=O [compound 111]		100 to 1000 nM	10 to 100 nM	100 to 1000 nM	
CC(C)[C@@H]1NCCOc2ccccc2/C=C/CNC(=O)[C@H](Cc2ccccc2)NC(=O)C2(CCOCC2)NC1=O [compound 140]		100 to 1000 nM	100 to 1000 nM	100 to 1000 nM	
COc1ccc(C[C@@H]2NC(=O)C3(CCCC3)NC(=O)[C@H](CC(C)C)NCCOc3ccccc3/C=C/CNC2=O)cc1 [compound 156]		1 to 100 nM	10 to 100 nM		Ki [2, 6]: 10 to 100 nM
CCC(C)C1NCCOc2ccccc2CCCNC(=O)C(CC(C)C)NC(=O)C(C)N(C)C1=O (stereo not drawn) [compound 176]	105/1				
C[C@@H]1C(=O)N[C@H](Cc2ccccc2)C(=O)NCCCc2ccccc2OCCN2CCCC[C@H]2C(=O)N1C [compound 226]		> 1000 nM	10 to 100 nM		Ki ([2]; Table 3E, read-out: Ki): 10 to 100 nM; Ki [2, 6]: 10 to 100 nM
C[C@@H]1C(=O)N[C@H](Cc2ccc(Cl)cc2)C(=O)NCCCc2ccccc2OCCN[C@@H](C2CC2)C(=O)N1C [compound 299]		1 to 100 nM	0.1 to 10 nM		Ki [2, 3]: 0.1 to 10 nM
C[C@@H]1C(=O)N[C@H](Cc2ccc(O)c(C(C)(C)C)c2)C(=O)NCCCc2ccccc2OCCN[C@@H](C2CC2)C(=O)N1C [compound 311]	21/1		10 to 100 nM		Ki [2, 3]: 10 to 100 nM
C[C@@H]1C(=O)N[C@H](Cc2c(F)c(F)c(F)c(F)c2F)C(=O)NCCCc2ccccc2OCCN[C@@H](C2CC2)C(=O)N1C [compound 318]		1 to 100 nM	0.1 to 10 nM		Ki [2, 3]: 0.1 to 10 nM
C[C@@H]1C(=O)N[C@H](Cc2ccc(C(F)(F)F)cc2)C(=O)NCCCc2ccccc2OCCN[C@@H](C2CC2)C(=O)N1C [compound 322]		1 to 100 nM	0.1 to 10 nM		Ki [2, 3]: 0.1 to 10 nM
CC1(C)NC(=O)C2(CCCC2)NCCOc2ccccc2/C=C/CNC(=O)[C@H](Cc2cccc(Cl)c2)NC1=O [compound 334]	346/1				
C[C@@H]1C(=O)N[C@H](Cc2ccc(F)cc2)C(=O)NCC#Cc2ccccc2OCCN[C@@H](C2CC2)C(=O)N1C [compound 354]		1 to 100 nM	10 to 100 nM		Ki [2, 3]: 10 to 100 nM
CC[C@H](C)[C@@H]1NCCCCCCCCNC(=O)[C@H](Cc2cccc(Cl)c2)NC(=O)C2(CCCC2)NC1=O [compound 363]	35/1		100 to 1000 nM		Ki [2, 3]: 100 to 1000 nM
CC1CNC(C2CC2)C(=O)N(C)C(C)C(=O)NC(Cc2ccc(F)cc2)C(=O)NCCCc2ccccc2O1 (stereo not drawn) [compound 367]		1 to 100 nM	10 to 100 nM		Ki [2, 3]: 10 to 100 nM
CCC(C)C1NCCOc2ccccc2C2CC2CNC(=O)C(Cc2cccc(Cl)c2)NC(=O)C2(CCCC2)NC1=O (stereo not drawn) [compound 388]	400/1				
CC1COc2ccccc2CCCNC(=O)C(Cc2ccc(F)cc2)NC(=O)C(C)N(C)C(=O)C(C2CC2)N1 (stereo not drawn) [compound 394]	1700/1				
